Test results from paper PMC6689975, “Novel Cell Wall Antifungals Reveal a Special Synergistic Activity in pbr1 Mutants Resistant to the Glucan Synthesis Antifungals Papulacandins and Echinocandins” (Frontiers in Microbiology, 2019).
≈ marks a conversion by molar mass, not a printed value. Read-outs that look alike come from different tables or passages of the source.

Legend:
Assay in all cases: microbe, parasite or virus in culture
C. albicans wild-type [1] = tested on: C. albicans wild-type; design: species or system whole yeast cells; micro-culture broth dilution MIC in YES at 30 C, turbidity, complete growth inhibition; details: Candida albicans, read-out: MIC
Protocol: (§1) Standard YEPD (Yeast Extract, Peptone, Dextrose) ([Sherman, 1990]), YEPD+S (YEPD with 1.2M sorbitol), YES (Yeast Extract, Dextrose and Supplements of Adenine, Histidine, Leucine, Uracil and Lysine) ([Alfa et al., 1993]) and YES+S (YES with 1.2 M sorbitol) ([Ribas et al., 1991]; [Ishiguro et al., 1997]), media were used for determination of MIC values of the tested compounds. A stock solution of 10 mg/ml of each tested compounds was prepared in DMSO and serial dilutions in DMSO were prepared. The final concentration of DMSO was 2% in the YEPD medium. […] The serial dilutions of compounds were dispensed into test tubes with 1 ml of YEPD or YEPD+S to make final concentrations of 200, 100, 50, 25, 12.5, 6.26, 3.125, 1.6, 0.8 and 0.4 μg/ml. The tested yeast strains were previously grown in YEPD, YEPD+S, YES or YES+S agar plates at 30°C for 48 h. Micro-culture assays of large numbers of samples were analyzed as described) ([Martins et al., 2011]). Essentially early log-phase cells were grown in YEPD, YEPD+S, YES or YES+S (1.2 M sorbitol) medium at 30°C, and diluted to cell density of 4 X 10^6 cells/ml in YEPD, YEPD+S, YES or YES+S medium and aliquots of 100 μl were dispensed into each small test tube (3 ml test tube size). Then, another 100 μl of YEPD, YEPD+S, YES or YES+S with the corresponding dilution of each compound at 2X concentration (4% DMSO) was added. The final volume was 200 μl, with the cells diluted to of 2 X 10^6 cells/ml and each compound diluted to 1X final concentration, containing increasing concentrations of antifungal (0, 1, 2, 5, 10, 20, 50, 100 and 200 μg/ml) or an equivalent volume of solvent (2% DMSO). The cells were grown at 30°C in an orbital roller and turbidity was analyzed after 24 and 48 h of incubation. The MIC was determined as the minimal concentration of tested compound that produced complete cell growth inhibition and kept the medium clear. The MIC values were calculated from at least three independent experiments. Next, the first generation of isochromanones (1E-16E) was also screened in YES medium (Table 5) and exerted a weaker antifungal potency than in YEPD medium and also than the second family of isochromanones in YES medium (17E-30E) (Table 6). The strains are partly different from the previously mentioned ones (Tables 5, 6) analyzing two wild type C. albicans strains because they behaved similarly in YEPD. It is remarkable that there was no effect against either the C. albicans, the S. cerevisiae, or the S. pombe wild-type strains, except with 30E.

[2] = tested on: T1, S. cerevisiae wild-type CVX12-3A; design: species or system whole yeast cells; micro-culture broth dilution MIC in YES at 30 C, turbidity, complete growth inhibition; details: Saccharomyces cerevisiae, read-out: MIC
T1 construct: CVX12-3A
Protocol: as §1

[3] = tested on: T2, S. pombe wild-type 972 h-; design: species or system whole yeast cells; micro-culture broth dilution MIC in YES at 30 C, turbidity, complete growth inhibition; details: Schizosaccharomyces pombe, read-out: MIC
T2 construct: 972 h-
Protocol: as §1

C. albicans wild-type [4] = tested on: C. albicans wild-type; design: species or system whole yeast cells; micro-culture broth dilution MIC in YES at 30 C, turbidity, complete growth inhibition; details: Candida albicans, read-out: MIC; remark: listed apart in the source
Protocol: as §1

C. albicans wild-type [5] = tested on: C. albicans wild-type; design: species or system whole yeast cells; macro tube broth dilution MIC in YEPD at 30 C, visual clearness of medium; details: Candida albicans, 48 h, read-out: MIC
Protocol: (§2) Standard YEPD (Yeast Extract, Peptone, Dextrose) ([Sherman, 1990]), YEPD+S (YEPD with 1.2M sorbitol), YES (Yeast Extract, Dextrose and Supplements of Adenine, Histidine, Leucine, Uracil and Lysine) ([Alfa et al., 1993]) and YES+S (YES with 1.2 M sorbitol) ([Ribas et al., 1991]; [Ishiguro et al., 1997]), media were used for determination of MIC values of the tested compounds. A stock solution of 10 mg/ml of each tested compounds was prepared in DMSO and serial dilutions in DMSO were prepared. The final concentration of DMSO was 2% in the YEPD medium. […] The serial dilutions of compounds were dispensed into test tubes with 1 ml of YEPD or YEPD+S to make final concentrations of 200, 100, 50, 25, 12.5, 6.26, 3.125, 1.6, 0.8 and 0.4 μg/ml. The tested yeast strains were previously grown in YEPD, YEPD+S, YES or YES+S agar plates at 30°C for 48 h. For inoculation of YEPD or YEPD+S macro test tubes a suspension of tested fungus was produced with 10^5 cfu/ml (cfu - colony forming unit). 10 μl of suspension was used for inoculation of each tube. After 48 h incubation at 30°C the tubes were checked. The MIC value is the lowest concentration of the tested compound that could inhibit the fungal growth and the medium remained clear. From each tube 10 μl culture was plated on YEPD agar medium to check the contamination. The MIC tests were carried out in three parallels. The screening of the first generation of isochromanones was carried out in YEPD and YEPD+S media (1E-16E). The fungal strains analyzed are: C. albicans wild-type ATCC 26555, SC5314 and ATCC 90028, S. cerevisiae wild-type CVX12-3A and pbr1-1 mutant, and S. pombe wild-type (972h^–), pbr1-8 mutant and pbr1-6 mutant. The bold numbers in Tables 4–6 indicate the more efficient compounds. […] The weak or moderate efficacy against the C. albicans wild-type strains was observed by some substances (3E, 4Z, 5Z, 10E, 15, and 16E). The efficiency toward the S. pombe pbr1-6 mutant strain was the highest inhibitory activity, except 7E, 11E, 12 and 14E. […] As regards the other S. pombe pbr1-8 mutant strain, the antifungal activity of the tested compounds was slightly lower, but the substances with the best activity are partly identical to the best compounds mentioned with pbr1-6, (i.e., 1E, 3E, 4Z, 5Z).

[6] = tested on: T1, S. cerevisiae wild-type CVX12-3A; design: species or system whole yeast cells; macro tube broth dilution MIC in YEPD at 30 C, visual clearness of medium; details: Saccharomyces cerevisiae, 48 h, read-out: MIC
Protocol: as §2

[7] = tested on: T2, S. pombe wild-type 972 h-; design: species or system whole yeast cells; macro tube broth dilution MIC in YEPD at 30 C, visual clearness of medium; details: Schizosaccharomyces pombe, 48 h, read-out: MIC
Protocol: as §2

C. albicans wild-type [8] = tested on: C. albicans wild-type; design: species or system whole yeast cells; macro tube broth dilution MIC in YEPD at 30 C, visual clearness of medium; details: Candida albicans, 48 h, read-out: MIC; remark: listed apart in the source
Protocol: as §2

C. albicans wild-type [9] = tested on: C. albicans wild-type; design: species or system whole yeast cells; macro tube broth dilution MIC in YEPD at 30 C, visual clearness of medium; details: Candida albicans, 48 h, read-out: MIC; remark: listed apart in the source
Protocol: as §2

SMILES | MIC (C. albicans wild-type [1]) [µg/mL] | MIC [2] [µg/mL] | MIC [3] [µg/mL] | MIC (C. albicans wild-type [4]) [µg/mL] | MIC (C. albicans wild-type [5]) [µg/mL] | MIC [6] [µg/mL] | MIC [7] [µg/mL] | MIC (C. albicans wild-type [8]) [µg/mL] | MIC (C. albicans wild-type [9]) [µg/mL]
O=C1OCc2ccccc2/C1=C\c1ccc(Cl)cc1 [23E] | > 200 | > 200 | > 200 | > 200 | – | – | – | – | –
O=C1OCc2ccccc2/C1=C/c1cccc(Cl)c1 [28Z, Z-4-[(3′-chlorophenyl)methylene]-3-isochromanone] | > 200 | > 200 | > 200 | > 200 | – | – | – | – | –
O=C1OCc2ccccc2/C1=C/c1ccccc1 [1Z] | > 200 | > 200 | > 200 | – | > 200 | 100 (≈ 423 µM) | 50 (≈ 212 µM) | > 200 | 200 (≈ 846 µM)
COc1cc(/C=C2/C(=O)OCc3ccccc32)ccc1O [30E, E-4-[(4′-Hydroxy-3′-Methoxyphenyl)Methylene]-3-Isochromanone] | > 200 | 150 (≈ 531 µM) | 150 (≈ 531 µM) | > 200 | – | – | – | – | –
Cn1cccc1/C=C1/C(=O)OCc2ccccc21 [4E] | > 200 | > 200 | > 200 | – | 200 (≈ 836 µM) | 100 (≈ 418 µM) | 50 (≈ 209 µM) | 200 (≈ 836 µM) | 200 (≈ 836 µM)
O=C1OCc2ccccc2/C1=C\c1ccc([N+](=O)[O-])cc1 [17E, E-4-[(4′-Nitrophenyl)Methylene]-3-Isochromanone] | > 200 | 200 (≈ 711 µM) | > 200 | > 200 | – | – | – | – | –
O=C1OCc2ccccc2/C1=C\c1cccc(O)c1 [16E] | > 200 | > 200 | > 200 | – | 200 (≈ 793 µM) | 200 (≈ 793 µM) | 100 (≈ 396 µM) | 200 (≈ 793 µM) | 50 (≈ 198 µM)
Cn1cccc1/C=C1\C(=O)OCc2ccccc21 [4Z] | > 200 | > 200 | > 200 | – | 25 (≈ 104 µM) | 12.5 (≈ 52.2 µM) | 25 (≈ 104 µM) | 50 (≈ 209 µM) | 12.5 (≈ 52.2 µM)
Cc1cc(C)c(/C=C2/C(=O)OCc3ccccc32)c(C)c1 [18E] | > 200 | > 200 | > 200 | > 200 | – | – | – | – | –
O=C1OCc2ccccc2/C1=C/c1ccc[nH]1 [5Z] | > 200 | > 200 | > 200 | – | 100 (≈ 444 µM) | 100 (≈ 444 µM) | 25 (≈ 111 µM) | 100 (≈ 444 µM) | 200 (≈ 888 µM)
O=C1OCc2ccccc2/C1=C\c1ccc(O)cc1 [29E, E-4-[(4′-Hydroxyphenyl)Methylene]-3-Isochromanone] | > 200 | > 200 | > 200 | > 200 | – | – | – | – | –
